In patent US20130012472A1, “COMPOSITION AND METHODS OF INHIBITING GASTROINTESTINAL PATHOGEN INFECTION” (Boston College, priority 2011, published 2013):

Key:
ETEC H10407 = test: Bacteria invasion assay (adherence and invasion of ETEC to IECs); assay type: cell-based, Escherichia coli
Protocol: (§1) Intestinal epithelial cells (IECs) such as HCT8, T84, Caco2, H4, and FHs74 cells, were cultured in 24-well tissue culture plates (Corning life Sciences Inc, MA) at 5×10^4 cells/well in antibiotic free media for 48 hours. The IEC cells, with or without treatment of HMOS or TFiLNO, were incubated with a suspension of ETEC H10407 cells (10^5-10^9 cfu) for 1 h at 37° C. […] gentamicin was then added to the culture to kill any extracellular bacteria cells. Cell lysis was performed in 500 μl of 0.5% Triton X-100 (Sigma, Mo.) for 30 minutes at room temperature. The cell lysates were plated on difco agar plates (antibiotic free) at a proper dilution of 500. The total number of cell-associated bacteria was determined as the number of bacteria in IEC lysate immediately after infection. The number of invaded bacteria was determined as those detected in IEC cell lysate prepared from IECs treated with gentamycin for 1 hour after bacterial infection. The number of bacteria adhered to IEC cells was calculated as follows: (The total number of cell-associated bacteria)−(The number of invaded bacteria). All of the adhesion and invasion assays were performed in duplicate in at least three independent experiments.

IL-8 [1] = test: ELISA of IL-8 secretion by ETEC-infected IECs; assay type: cell-based; settings: for IL-8 secretion induced by ETEC invasion: ETEC-infected IECs with inhibitors, FIGS. 3D and 3E
Protocol: as §1
(§2) Levels of proinflammatory factors (IL-8, IL-6, TNF-α, and MCP-1) in the culture supernatants of the IECs were measured using ELISA kits from R&D following manufacturer's protocols.

ETEC [2] = test: Bacteria killing assay; assay type: cell-based, Escherichia coli; settings: TFiLNO 30 pg/ml; FIG. 6A
ETEC [3] = test: Wash-out experiments (IECs pre-incubated with TFiLNO, washed, then ETEC invasion); assay type: cell-based, Escherichia coli; settings: IECs incubated 48 hours with 30 pg/mL TFiLNO, washed 6 times with PBS; FIG. 6C
Protocol: IECs were grown in 24-well tissue culture plates (Corning life Sciences Inc, MA) at 5×10^4 cells/well in an antibiotic free medium for 48 hours. The culture medium was then replaced with a fresh medium containing 30 pg/mL TFiLNO. The IECs were further incubated at 37° C. for 48 hours. Supernatants were discarded and cells were washed 6 times with PBS. The cells were then incubated in a fresh medium free of TFiLNO and contains ETEC (10^8). After 1 hour incubation, extracellular bacteria were killed by gentamycin. Invaded ETEC were measured as described previously.

ETEC [4] = test: Pre-incubation assay (ETEC pre-incubated with TFiLNO, then invasion of T84 cells); assay type: cell-based, Escherichia coli; settings: ETEC pre-incubated 2 h with TFiLNO 30 pg/mL, then T84 cells 1 hour; FIG. 6B
Protocol: ETEC cells in mid-logarithmic growth phase were re-suspended in PBS (pH 7.2) at a concentration of 2×10^8 cells/ml. The suspension was mixed with an equal volume of PBS in the presence or absence of TFiLNO (30 pg/mL), and incubated in U-bottom 96-well plates at room temperature for 2 h with brief mixing every 15 min. At the end of the incubation, the ETEC cells were co-incubated with T84 cells for 1 hour at 37° C. After extracellular bacteria were killed by gentamycin, invaded ETEC were measured as described above.

IL-8 [5] = test: LPS-stimulated IL-8 secretion by T84 cells in the absence of ETEC (ELISA); assay type: cell-based; settings: TFiLNO 30 pg/ml, 1 h at 37° C., FIG. 7A
Protocol: as §2
To examine the effect of TFiLNO on IL-8 production, this oligosaccharide (30 pg/ml) was incubated with T84 cells in the absence of ETEC for 1 h at 37° C. IL-8 secretion to the culture medium was determined by ELISA. […] See also FIGS. 7B and 7C.

CD14 = CD14 expression on IECs (RT-PCR, FACS); assay type: cell-based, human; settings: TFiLNO-treated IECs; FIGS. 7B and 7C
Protocol: IEC cells (e.g., T84 cells) were treated with HMOS (5 mg/mL) prepared as described above for 48 hours. Cells not treated by HMOS were used as a negative control. Total RNAs were purified from the IEC cells and RT-PCR was performed following routine methods to determine the expression levels of genes of interest, including those shown in FIG. 7B. GADPH was used as an internal control. The relative gene expression levels were determined by Delta CT Method. T84 cells treated with or without HMOS were incubated with PE-conjugated mouse anti-human CD14 Mabs. PE-conjugated isotype-matched (IgG1) antibodies were used as controls. Data respecting 20,000 live cells from each sample were collected and subjected to FACS analysis following routine procedures.

Molecule | ETEC invasion of IEC cells (ETEC H10407; cytochalasin D, FIG. 3D) | IL-8 secretion induced by ETEC invasion (IL-8 [1]) | killing of ETEC (ETEC [2]) | adherence of ETEC to IEC cells (ETEC H10407; TFiLNO 30 pg/ml, FIG. 5A) | invasion of ETEC to IEC cells (ETEC H10407; TFiLNO 30 pg/ml, FIG. 5B) | inhibitory activity against ETEC invasion after washing off preincubated TFiLNO (ETEC [3]) | invasion of ETEC after pre-incubation of ETEC with TFiLNO (ETEC [4]) | secretion of IL-8 by the treated IEC cells (IL-8 [1]; TFiLNO 30 pg/ml, ETEC-infected IEC cells, over time, FIG. 5C) | IL-8 secretion stimulated by LPS (IL-8 [5]) | CD14 expression on IECs (CD14)
C=C1[C@@H](C)[C@H]2[C@H](Cc3ccccc3)NC(=O)[C@]23[C@H](OC(C)=O)/C=C/[C@@](C)(O)C(=O)[C@@H](C)C/C=C/[C@H]3[C@@H]1O [cytochalasin D, reference compound] | Inhibition of invasion | inhibited |  |  |  |  |  |  |  | 
Trifucosyl(1,2-1,2-1,3)-lacto-N-octoase [TFiLNO] |  |  | did not kill | inhibit | inhibit | did not affect | could not be further inhibited | significantly reduced | directly inhibited | suppression
polymycin-B |  | reduced |  |  |  |  |  |  |  | 
